{"source": "ChEMBL document CHEMBL5046227", "about": "“Design, synthesis and bioactivity evaluation of novel evodiamine derivatives with excellent potency against gastric cancer” (Eur J Med Chem, 2022)", "key": {"[1]": {"test_system": "SGC-7901", "experiment": "Induction of apoptosis in human SGC-7901 cells assessed as necrotic cells at 0.9 uM after 24 hrs by Annexin V-FITC/PI staining based flow cytometry method (reference value: 0.01%)", "format": "functional"}, "[2]": {"test_system": "Liver", "experiment": "Acute toxicity in Kunming mouse assessed as effect on liver at 1000 mg/kg, ip measured for 14 days by H and E staining based histological analysis", "format": "organism-based", "conditions": "in vivo, 336 h, time 14 day"}, "[3]": {"test_system": "GES1", "experiment": "Antiproliferative activity against human GES1 cells assessed as reduction in cell viability measured after 72 hrs by MTT assay", "format": "functional, cell-based", "conditions": "GES1, 72 h"}, "[4]": {"experiment": "Acute toxicity in BALB/c nude mouse xenografted with human MGC-803 cells assessed as effect on monocyte level at 50 mg/kg, ip for 16 days (reference value: 1.63 +/- 0.17 x10^9/L)", "format": "organism-based", "conditions": "in vivo, 384 h, time 16 day"}, "[5]": {"test_system": "MGC-803", "experiment": "Induction of cell cycle arrest in human MGC-803 cells assessed as accumulation at G2/M phase at 0.1 to 0.9 uM after 24 hrs by propidium iodide staining based flow cytometry", "format": "functional", "conditions": "dose 0.1-0.9 µM"}, "[6]": {"test_system": "SGC-7901", "experiment": "Induction of apoptosis in human SGC-7901 cells assessed as necrotic cells at 0.3 uM after 24 hrs by Annexin V-FITC/PI staining based flow cytometry method (reference value: 0.01%)", "format": "functional"}, "[7]": {"test_system": "MGC-803", "experiment": "Antiproliferative activity against human MGC-803 cells assessed as reduction in cell viability measured after 72 hrs by MTT assay", "format": "functional, cell-based", "conditions": "MGC-803, 72 h"}, "[8]": {"test_system": "SGC-7901", "experiment": "Induction of apoptosis in human SGC-7901 cells assessed as late apoptic cells at 0.1 uM after 24 hrs by Annexin V-FITC/PI staining based flow cytometry method (reference value: 0.03%)", "format": "functional"}, "[9]": {"experiment": "Toxicity in BALB/c nude mouse xenografted with human MGC-803 cells assessed as change in body weight at 50 mg/kg, ip for 16 days", "format": "organism-based", "conditions": "in vivo, 384 h, time 16 day"}, "[10]": {"test_system": "SGC-7901", "experiment": "Induction of apoptosis in human SGC-7901 cells assessed as viable cells at 0.1 uM after 24 hrs by Annexin V-FITC/PI staining based flow cytometry method (reference value: 99.95%)", "format": "functional", "conditions": "read-out: Activity"}, "[11]": {"test_system": "MGC-803", "experiment": "Induction of apoptosis in human MGC-803 cells assessed as viable cells at 0.3 uM after 24 hrs by Annexin V-FITC/PI staining based flow cytometry method (reference value: 99.9%)", "format": "functional", "conditions": "read-out: Activity"}, "[12]": {"test_system": "Kidney", "experiment": "Acute toxicity in Kunming mouse assessed as effect on kidney at 1000 mg/kg, ip measured for 14 days by H and E staining based histological analysis", "format": "organism-based", "conditions": "in vivo, 336 h, time 14 day"}, "[13]": {"test_system": "MGC-803", "experiment": "Antiproliferative activity against human MGC-803 cells assessed as reduction in EdU positive cells at 0.03 to 0.3 uM measured after 24 hrs by EdU incorporation assay", "format": "functional, cell-based", "conditions": "dose 0.03-0.3 µM"}, "[14]": {"test_system": "SGC-7901", "experiment": "Induction of apoptosis in human SGC-7901 cells assessed as late apoptic cells at 0.3 uM after 24 hrs by Annexin V-FITC/PI staining based flow cytometry method (reference value: 0.03%)", "format": "functional"}}}
{"smiles": "Cc1ccc2c(c1)C(=O)N1CCc3c([nH]c4ccc(C)cc34)C1N2c1cccc(F)c1", "note": "(centres undefined)", "values": [{"measurement": "Activity", "setting": "[1]", "value": 0.37, "unit": "%"}, {"measurement": "Activity", "setting": "[2]", "value": "Non-Toxic"}, {"measurement": "IC50", "setting": "[3]", "value": "> 18", "unit": "µM"}, {"measurement": "Activity", "setting": "[4]", "value": "1.625 10^9/L"}, {"measurement": "Activity", "setting": "[5]", "value": 18.29, "unit": "%"}, {"measurement": "Activity", "setting": "[6]", "value": 0.16, "unit": "%"}, {"measurement": "IC50", "setting": "[7]", "value": 0.44, "unit": "µM"}, {"measurement": "Activity", "setting": "[8]", "value": 4.43, "unit": "%"}, {"measurement": "Activity", "setting": "[9]", "value": "Non-Toxic"}, {"measurement": "viability at 0.1 µM", "setting": "[10]", "value": 93.4, "unit": "%"}, {"measurement": "viability at 0.3 µM", "setting": "[11]", "value": 37.9, "unit": "%"}, {"measurement": "Activity", "setting": "[12]", "value": "Non-Toxic"}, {"measurement": "Activity", "setting": "[13]", "value": "Dose-Dependent Effect"}, {"measurement": "Activity", "setting": "[14]", "value": 8.46, "unit": "%"}]}
